Reference: publication PMC11066877, “Development and Characterization of Novel FAP-Targeted Theranostic Pairs: A Bench-to-Bedside Study” (Research, 2023)
Like-named read-outs stand apart in the source and are kept apart here.

Key:
[1] = microPET/CT imaging, ROI analysis, BxPC-3 tumor models; assay type: in vivo, mice; conditions: nude (thymus-free), mouse, intravenous, 3 MBq, 1 h after tracer injection
Method: (§1) A human pancreatic cancer cell line BxPC-3 and a murine pancreatic cancer cell Panc-02 were obtained from the American Type Culture Collection. The pancreatic cancer cell line T3M-4 was purchased by MeisenCTCC (Zhejiang, China). BxPC-3 and T3M-4 cell lines were grown in RPMI 1640 medium (Shanghai BasalMedia Technologies Co., LTD.) containing 10% FBS (GE Healthcare, Chicago, IL, USA) and 1% penicillin–streptomycin solution (Invitrogen). To culture the Panc-02 cell line, a medium called Dulbecco’s modified Eagle medium from Shanghai BasalMedia Technologies Co., LTD. was used, which consisted of 10% FBS. The cell line HT-1080 was grown in MEM medium (Shanghai BasalMedia Technologies Co., LTD.) supplemented with 10% FBS, 1% penicillin-streptomycin solution, and 1% nonessential amino acids (NEAA-11140050; Gibco). A human fibrosarcoma cell line was stably transfected with FAP (HT1080-FAP) and cultured, as we previously described. All cell lines were cultured in a humid incubator with 5% CO2 at a temperature of 37 °C. Approval was granted by the Institutional Animal Care and Use Committee (Renji Hospital, School of Medicine, Shanghai Jiao Tong University) for all experimental protocols and procedures related to animal care. Panc-02 cells were implanted by subcutaneous injection of 5 × 10^6 tumor cells suspended in 100 μl PBS and matrigel matrix (Corning) with equal volume into the upper limb flank of C57BL/6 mice (Shanghai Sheng Chang Biotechnology Co., Ltd.). Four- to 6-week-old thymus-free nude mice (GemPharmatech) were subcutaneously inoculated with BxPC-3, T3M-4, HT-1080, and HT1080-FAP cells (5 × 10^6 in 100 μl of PBS mixing with 100 μl matrigel matrix) in the right shoulder. […]
(§2) MicroPET imaging was performed on isoflurane-anesthetized mice injected intravenously via the lateral tail vein with around 3 MBq (2.5 nmol) of the radioligand at certain times. […] The information was analyzed using OsiriX Lite software (Pixmeo SARL) and Inveon Research Workplace (Siemens Preclinical Solutions). […]

[2] = microPET/CT imaging, ROI analysis, HT1080-FAP tumor models; assay type: in vivo, mice; conditions: nude (thymus-free), mouse, intravenous
Method: (§3) A human pancreatic cancer cell line BxPC-3 and a murine pancreatic cancer cell Panc-02 were obtained from the American Type Culture Collection. The pancreatic cancer cell line T3M-4 was purchased by MeisenCTCC (Zhejiang, China). BxPC-3 and T3M-4 cell lines were grown in RPMI 1640 medium (Shanghai BasalMedia Technologies Co., LTD.) containing 10% FBS (GE Healthcare, Chicago, IL, USA) and 1% penicillin–streptomycin solution (Invitrogen). To culture the Panc-02 cell line, a medium called Dulbecco’s modified Eagle medium from Shanghai BasalMedia Technologies Co., LTD. was used, which consisted of 10% FBS. The cell line HT-1080 was grown in MEM medium (Shanghai BasalMedia Technologies Co., LTD.) supplemented with 10% FBS, 1% penicillin-streptomycin solution, and 1% nonessential amino acids (NEAA-11140050; Gibco). A human fibrosarcoma cell line was stably transfected with FAP (HT1080-FAP) and cultured, as we previously described. All cell lines were cultured in a humid incubator with 5% CO2 at a temperature of 37 °C. Approval was granted by the Institutional Animal Care and Use Committee (Renji Hospital, School of Medicine, Shanghai Jiao Tong University) for all experimental protocols and procedures related to animal care. Panc-02 cells were implanted by subcutaneous injection of 5 × 10^6 tumor cells suspended in 100 μl PBS and matrigel matrix (Corning) with equal volume into the upper limb flank of C57BL/6 mice (Shanghai Sheng Chang Biotechnology Co., Ltd.). Four- to 6-week-old thymus-free nude mice (GemPharmatech) were subcutaneously inoculated with BxPC-3, T3M-4, HT-1080, and HT1080-FAP cells (5 × 10^6 in 100 μl of PBS mixing with 100 μl matrigel matrix) in the right shoulder. Follow-up microPET/CT imaging and ex vivo biodistribution experiments were performed when the tumor diameter reached 8 to 9 mm.
MicroPET imaging was performed on isoflurane-anesthetized mice injected intravenously via the lateral tail vein with around 3 MBq (2.5 nmol) of the radioligand at certain times. Regarding the FD1 blocking group, an excessive amount of unlabeled FD1 (200-fold) was simultaneously injected with [^68Ga]Ga-DOTA-FD1 into the tail vein of another batch of mice. Images were acquired using an IRIS PET/CT system (Inviscan Imaging Systems). PET data were reconstructed using a nonscatter-corrected 3D-ordered subset expectation […]/maximum a posteriori (OSEM3D/MAP) algorithm. The information was analyzed using OsiriX Lite software (Pixmeo SARL) and Inveon Research Workplace (Siemens Preclinical Solutions). The percentage of injected dose per gram of tissue (%ID/g, mean ± SD) was utilized to present the distribution of tracers in the ROI, encompassing tumor, heart, lung, liver, kidney, and muscle.

[3] = Ex vivo biodistribution after imaging, HT1080-FAP tumor models; assay type: in vivo, mice; conditions: nude (thymus-free), mouse, intravenous, total radioactivity
Method: as §3
After imaging collection and image reconstruction, samples from euthanized experimental mice, including blood and multiple significant organs, were harvested and weighed. The radioactivity in each collected tissue was counted using an automated gamma counter (Wizard 2480, PerkinElmer) and the accumulation of radioactivity in different tissues and organs was quantified and expressed as %ID/g (mean ± SD). [^177Lu]Lu-DOTA-FD1 (~1.11 MBq, n = 3), [^177Lu]Lu-DOTA-FD2 (~1.11 MBq, n = 3), and [^177Lu]Lu-DOTA-FD3 (~1.11 MBq, n = 3) were injected into the tail vein of free nude mice at 6 h, 24 h, and 24 h for ex vivo biodistribution to verify the circulation time of the 3 probes in vivo. Biodistribution data from tumor-bearing mice injected with [^177Lu]Lu-DOTA-FD3 at 45 h (~1.11 MBq, n = 4) and 90 h (~1.11 MBq, n = 3) validated the prolonged enrichment of the probe at the tumor site. At the end of each probe imaging and radioactivity counting study, tumor tissues were fixed in paraformaldehyde tissue fixative. Briefly, sections of 10 μm were cut and stained for H&E following the standard protocols. IHC staining with a FAP antibody (ab227703, Abcam) was performed only on tumor tissues following accepted techniques.

[4] = Safety and biodistribution of [68Ga]Ga-DOTA-FD1 in healthy volunteers and patients; assay type: in vivo, human
Method: This clinical trial received ethical approval from the institutional review board of The First Affiliated Hospital of Xiamen University and has been registered at ClinicalTrials.gov (NCT04849247). All healthy volunteers (n = 3) and patients (n = 6) provided written informed consent before participation. There was no need for any particular preparation for [^68Ga]Ga-DOTA-FD1 PET/CT. Each participant was administered a dose of [^68Ga]Ga-DOTA-FD1 at a rate of 3.0 to 3.7 MBq/kg. Adverse events were under observation for 4 h after the injection of [^68Ga]Ga-DOTA-FD1. A hybrid PET/CT system (Discovery MI, GE Healthcare, Milwaukee, WI, USA) was used to perform static PET/CT imaging after 60 min of injection. PET/CT scan was conducted from the head region to the upper thighs (for [^68Ga]Ga-DOTA-FD1 PET/CT). For the CT scan, the parameters utilized were 110 kV, 80 mA, and a slice thickness measuring 3.75 mm. The obtained data were transferred to the Advantage Workstation (version AW 4.7, GE Healthcare). The Bayesian penalized likelihood reconstruction algorithm (Q.clear, GE Healthcare) was utilized for image reconstruction, employing a penalization factor (beta) of 500. […] In terms of quantitative assessment, the maximum standardized uptake value (SUVmax) and the mean SUV (SUVmean) were employed to quantify the uptake of the radiopharmaceutical in both normal organs and tumor tissues.

[5] = Ex vivo biodistribution after imaging, HT-1080 tumor models; assay type: in vivo, mice; conditions: nude (thymus-free), mouse, intravenous, 3 MBq, total radioactivity, after imaging at 30 min p.i., read-out: tumor uptake (biodistribution study)
Method: A human pancreatic cancer cell line BxPC-3 and a murine pancreatic cancer cell Panc-02 were obtained from the American Type Culture Collection. The pancreatic cancer cell line T3M-4 was purchased by MeisenCTCC (Zhejiang, China). BxPC-3 and T3M-4 cell lines were grown in RPMI 1640 medium (Shanghai BasalMedia Technologies Co., LTD.) containing 10% FBS (GE Healthcare, Chicago, IL, USA) and 1% penicillin–streptomycin solution (Invitrogen). To culture the Panc-02 cell line, a medium called Dulbecco’s modified Eagle medium from Shanghai BasalMedia Technologies Co., LTD. was used, which consisted of 10% FBS. The cell line HT-1080 was grown in MEM medium (Shanghai BasalMedia Technologies Co., LTD.) supplemented with 10% FBS, 1% penicillin-streptomycin solution, and 1% nonessential amino acids (NEAA-11140050; Gibco). […]
After imaging collection and image reconstruction, samples from euthanized experimental mice, including blood and multiple significant organs, were harvested and weighed. The radioactivity in each collected tissue was counted using an automated gamma counter (Wizard 2480, PerkinElmer) and the accumulation of radioactivity in different tissues and organs was quantified and expressed as %ID/g (mean ± SD). […] At the end of each probe imaging and radioactivity counting study, tumor tissues were fixed in paraformaldehyde tissue fixative. […]

[6] = microPET/CT imaging, ROI analysis, Panc-02 tumor models; assay type: in vivo, mice; conditions: C57BL/6, mouse, intravenous, 3 MBq, 1 h after tracer injection
Method: as §1, §2

[7] = microPET/CT imaging, ROI analysis, HT-1080 tumor models; assay type: in vivo, mice; conditions: nude (thymus-free), mouse, intravenous, 3 MBq, 30 min p.i.
Method: as §1, §2

[8] = [68Ga]Ga-DOTA-FD1 PET/CT imaging in tumor patients; assay type: in vivo, human; conditions: human
Method: (§4) This clinical trial received ethical approval from the institutional review board of The First Affiliated Hospital of Xiamen University and has been registered at ClinicalTrials.gov (NCT04849247). All healthy volunteers (n = 3) and patients (n = 6) provided written informed consent before participation. There was no need for any particular preparation for [^68Ga]Ga-DOTA-FD1 PET/CT. Each participant was administered a dose of [^68Ga]Ga-DOTA-FD1 at a rate of 3.0 to 3.7 MBq/kg. Adverse events were under observation for 4 h after the injection of [^68Ga]Ga-DOTA-FD1. A hybrid PET/CT system (Discovery MI, GE Healthcare, Milwaukee, WI, USA) was used to perform static PET/CT imaging after 60 min of injection. PET/CT scan was conducted from the head region to the upper thighs (for [^68Ga]Ga-DOTA-FD1 PET/CT). For the CT scan, the parameters utilized were 110 kV, 80 mA, and a slice thickness measuring 3.75 mm. The obtained data were transferred to the Advantage Workstation (version AW 4.7, GE Healthcare). The Bayesian penalized likelihood reconstruction algorithm (Q.clear, GE Healthcare) was utilized for image reconstruction, employing a penalization factor (beta) of 500. For tumor staging/restaging, a total of 6 patients received paired PET/CT imaging using [^68Ga]Ga-DOTA-FD1. In terms of quantitative assessment, the maximum standardized uptake value (SUVmax) and the mean SUV (SUVmean) were employed to quantify the uptake of the radiopharmaceutical in both normal organs and tumor tissues.

[9] = system: tumor lesions of patients; test: [68Ga]Ga-DOTA-FD1 PET/CT imaging in tumor patients; assay type: in vivo, human; conditions: for Lymph node metastases Median SUVmax (range) / Primary tumor Median SUVmax: initial staging
Method: as §4

Work on `CCCCCC(=O)N[C@H]1CSCc2cc(CSCCNC(=O)[C@H](CCCCN)NC(=O)[C@@H](NC(=O)[C@H](CCSC)NC(=O)CN3CCN(CC(=O)O)CCN(CC(=O)O)CCN(CC(=O)O)CC3)C(C)C)cc(c2)CSC[C@@H](C(=O)O)NC(=O)[C@H](Cc2ccccc2)NC(=O)[C@H](CCC(N)=O)NC(=O)[C@H]([C@@H](C)O)NC(=O)[C@@H]2CCCN2C(=O)[C@@H]2CCCN2C1=O` [[^68Ga]Ga-DOTA-FD1, metal not drawn] yielded a tissue uptake at 1 h [1] of 0.96 ± 0.07 %ID/g, a tissue uptake ([2]; 750 ug, HT1080-FAP tumor, co-injected excess unlabeled FD1 (750 μg), read-out: tumor uptake (ROI analysis) upon FD1 blocking) of 2.63 ± 1.28 %ID/g and a tissue uptake ([2]; 3 MBq, HT1080-FAP tumor, without blocking, read-out: tumor uptake (ROI analysis)) of 8.85 ± 3.3 %ID/g. The tissue uptake ([2]; kidney, 750 ug, HT1080-FAP models, co-injected excess unlabeled FD1 (750 μg), read-out: kidney accumulation (ROI analysis) upon FD1 blocking) was 10.3 ± 1.67 %ID/g, the tissue uptake ([2]; kidney, 3 MBq, HT1080-FAP models, without blocking, read-out: kidney accumulation (ROI analysis)) was 40.6 ± 4.76 %ID/g and the tissue uptake ([3]; 750 ug, HT1080-FAP tumor, co-injected excess unlabeled FD1 (750 μg), read-out: tumor uptake (biodistribution) upon FD1 blocking) was 2.15 ± 0.58 %ID/g. The tissue uptake ([3]; 3 MBq, HT1080-FAP tumor, without blocking, read-out: tumor uptake (biodistribution study)) was 19.2 ± 6.51 %ID/g, the tissue uptake ([3]; kidney, 750 ug, HT1080-FAP models, co-injected excess unlabeled FD1 (750 μg), read-out: kidney accumulation (biodistribution analysis) upon FD1 blocking) was 30.3 ± 4.45 %ID/g and the tissue uptake ([3]; kidney, 3 MBq, HT1080-FAP models, without blocking, read-out: kidney accumulation (biodistribution analysis)) was 110 ± 27.1 %ID/g. For the same compound, the “uptake in normal tissues and organs” value ([4]; healthy volunteers (n = 3), PET 60 min after injection) was “negligible uptake in normal tissues and organs except the kidneys”, the adverse events ([4]; healthy volunteers and patients, during the injection and at 4 h follow-up, 3.0 to 3.7 MBq/kg) was “No adverse events were observed” and the tissue uptake at 0.5 h [5] was 1.02 ± 0.41 %ID/g. It also gave a tissue uptake at 1 h [6] of 0.92 ± 0.22 %ID/g, a tissue uptake at 0.5 h [7] of 1.97 ± 0.45 %ID/g and an SUV at 1 h ([8]; primary tumour lesions, 4 primary lesions, initial staging patients, 60 min after injection, read-out: median SUVmax of primary lesions) of 8.86 SUV. The SUV at 1 h ([8]; 15 lymph node metastases in 3 patients, read-out: median SUVmax of lymph node metastases) was 5.6 SUV, the “Bone and visceral metastases Median SUVmax (range)” value ([9]; Patient 1, thyroid cancer, recurrence detection) was 2.87 (2.52–4.45) and the “Lymph node metastases Median SUVmax (range)” value ([9]; Patient 3, esophagus cancer) was 4.29 (4.02–4.57). The “Primary tumor Median SUVmax” value ([9]; Patient 3, esophagus cancer) was 7.64, the “Lymph node metastases Median SUVmax (range)” value ([9]; Patient 4, NPC) was 5.67 (4.14–7.76) and the “Primary tumor Median SUVmax” value ([9]; Patient 4, NPC) was 5.27. The “Primary tumor Median SUVmax” value ([9]; Patient 5, esophagus cancer) was 10.07 and the “Primary tumor Median SUVmax” value ([9]; Patient 6, esophagus cancer) was 13.42.
